US20120064180A1, “USE OF NO AND NO DONORS FOR TERMINATING DORMANCY IN INVERTEBRATES” (UNIVERSITEIT GENT, priority 2009, published 2012)

Key:
[1] = tested on: Bolshoye Yarovoye Artemia cysts (ARC BY 1706); experiment: Post-diapause development of Bolshoye Yarovoye strain encysted Artemia embryos with NO donors; type: in vivo
Protocol: Encysted embryos (cysts) from a parthenogenetic strain of Artemia obtained in winter 2005-2006 in Bolshoye Yarovoye (Altay Region: 52° 51′64″ N-78° 37′32″ E), Russia (Artemia Reference Center (ARC) code number BY 1706), were stored in the dark at 4° C. in dry sealed bags. For the experiment, the cysts were grown at 26-28° C. with constant illumination in 25 ml of sea water under varying experimental conditions as detailed below.
To quantify larval (nauplii) emergence and hatching (FIG. 1) which served as measures of cyst development, 6 samples of 250 μl from each 50 ml tube were mixed individually with 250 μl of sea water and 2 drops of Lugol's solution (Van Stappen, G, 1996) prior to counting nauplii (N) and umbrella (U) with the aid of a dissecting microscope. […] The extent of development was determined as the percent of developed cysts which was calculated as either the number of hatched larvae, or the number of hatched and emerged larvae, obtained from 100 cysts, the latter represented by the sum of hatched nauplii (larvae), emerged larvae and undeveloped cysts containing embryos.
The hatching percentage (H %) was calculated according to: […]
The hatching percentage plus (H^+%) was calculated according to: […]
The percent of developed cysts was calculated as described above.

[2] = tested on: diapaused pupae of Heliothis virescens; details: 30 min dip
Protocol: The larval stages of the tobacco budworm Heliothis virescens (Lepidoptera: Noctuidae) were reared on an artificial diet at standard conditions of 25° C. and long light conditions with 14 h light (Smagghe G et al., 1994). To produce nondiapause pupae, the larvae were kept at these conditions throughout development, whereas for pupal diapause induction, third instar larvae were transferred to 18° C. and short light conditions of 8 h light. The pupal stemma were examined to check the diapause status as described (Philips J R et al., 1966).
The treatment was done in capped plastic Falcon tubes of 10 ml. Controls were dipped in distilled water. After treatment, pupae were put in 9-cm Petri dishes, lined with a filter paper and kept at 25° C. and 14 h light, and development of adults was scored at daily intervals. Per treatment, 20 pupae were tested. Means±SD were compared to controls with a Student's t-test.

[3] = tested on: eggs with diapaused embryos of Bombyx mori; experiment: Termination of embryonic diapause in eggs dipped in NO donor or HCl; type: in vivo; details: SpermineNONOate 1 mM 30 min dip; 20% HCl 5 min 48° C.
Protocol: All experiments were carried out on silkmoth strain Bombyx mori J106 (Lepidoptera: Bombycidae). Larvae were maintained on an artificial diet (Yakuruto Co.) under standard conditions of 25° C., 65% relevant humidity and 16 h light ([…] et al., 2003). Egg batches were collected from a continuous insect colony and used for the experiments. […] The latter treatment is the normally used procedure to break diapause in eggs with diapaused embryos for maintenance of the insect colony of B. mori ([…] et al., 2003). In a water-control, eggs with diapaused embryos were dipped in distilled water only, and in a blank-control, eggs with diapaused were not treated. […] The numbers of eggs with diapaused embryos per treatment (n) are given with the results.

N-[4-[1-(3-aminopropyl)-2-hydroxy-2-nitrosohydrazinobutyl]-1,3-propane diamine [Spermine NONOate]
hatching after 24 hours ([1]; 40 and 60 μM, 24 hours, overcome by 48 hr): less dramatic, but obvious
concentration at which NO donor was most effective on cyst development ([1]; Bolshoye Yarovoye cysts, FIG. 2A-F): 4.0 µM
time to develop into the adult stage ([2]; 1000 μM, control 9.17±0.75 d, p=0.01): 7.60 ± 0.89 days
time to adult stage versus controls ([2]; 10 and 100 μM): similar
Number of developed neonates at day 6 [3]: 28
Number of developed neonates at day 7 [3]: 22
Number of developed neonates at day 8 [3]: 10
Number of developed neonates at day 14 [3]: 0
Number of undeveloped eggs at day 14 [3]: 10
eggs developed into neonate larvae at 6-8 days after treatment (total) [3]: 86%
percentage of developed neonates at day 14 [3]: (0%)
